The values below come from patent US7629457B2, “Method for producing cytosine nucleoside compounds” (priority 2001, dated 2009).

The subject of one experiment is cytosine deaminase (cod). Nature of the experiment: cod (cytosine deaminase) residual activity of heat treated MT-10905 cell mass suspension after processing with methanol. It counts as biochemical, Escherichia coli. The note with it: cells heat treated 60° C. 20 hours = 100%. The procedure: The cell mass suspension of the strain MT-10905 obtained in Reference Example 2 was kept at 60° C. Cytosine deaminase will be expressed as cod hereafter. The activity of cod was analyzed after the cell mass suspension was added to 100 mM tris hydrochloride buffer (pH 8.0) and 20 mM cytosine, and then treated at 50° C. for 2 hours. The cod activity of the cell mass suspension that was not heat treated was set at 100% and the remaining activities were expressed with relative values. The results shown in Table 4 reveal that the activity of PNP was reduced minimally, but the activity of cod was eliminated nearly completely.
(§1) The cell mass suspension heat treated for 20 hours in Example 3 was processed with methanol in the same way as in Example 1. The individual activities of the cell mass suspension that was heat treated for 20 hours in Example 3 were set at 100% and the remaining activities were expressed with relative values. The results shown in Table 5 reveal that the activity of PNP was reduced minimally, but the activities of both cod and cdd were eliminated nearly completely.

The target of experiment [1] is T1, PNP (purine nucleoside phosphorylase) (Escherichia coli, UniProt P0ABP8).
T1 construct: expressed in transfected cells; host or cells: E. coli DH5alpha transformed with plasmid pUC-PNP73 (strain MT-10905), whole cell mass suspension
T1 sequence (P0ABP8 2-239): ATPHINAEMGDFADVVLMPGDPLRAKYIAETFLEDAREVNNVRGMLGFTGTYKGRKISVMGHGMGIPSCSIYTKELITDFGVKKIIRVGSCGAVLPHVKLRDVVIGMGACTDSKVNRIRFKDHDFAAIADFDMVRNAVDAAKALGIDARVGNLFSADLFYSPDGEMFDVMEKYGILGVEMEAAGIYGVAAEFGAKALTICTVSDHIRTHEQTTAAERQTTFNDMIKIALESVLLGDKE
Nature of the experiment: PNP residual activity of MT-10905 cell mass suspension after processing with organic solvent. In kind it is biochemical. As to conditions: for PNP Activity: organic solvent 50%. The procedure: The activity of PNP was analyzed after the cell mass suspension was added to 1.0 ml of the reaction solution consisting of 20 mM 2′-deoxyribose-1-phosphate di(monocyclohexylammonium) salt (produced by SIGMA), 5.4 mM adenine (produced by Wako Pure Chemicals, guaranteed grade) and 100 mM tris hydrochloride buffer (pH 8.0), and then treated at 50° C. or 15 minutes. The above reaction was conducted using such an amount of the cell mass as to produce not more than 2 mM deoxyadenosine. The cell mass suspension described above was kept at 30° C. for 1 hour without addition of methanol, and then the activity of PNP of the suspension was set at 100% of relative value. The results shown in Table 2 reveal that the activity of PNP was reduced minimally, but the activity of cdd was eliminated nearly completely.
as §1

Another experiment has as its target T2, cytidine deaminase (cdd) (Escherichia coli, UniProt P0ABF6).
T2 construct: endogenous in cells; host or cells: E. coli DH5alpha transformed with pUC-PNP73 (strain MT-10905), whole cell mass suspension
The experiment in a line: cdd (cytidine deaminase) residual activity of MT-10905 cell mass suspension after processing with organic solvent. As to conditions: for cdd Activity: organic solvent 50%. It counts as biochemical. The procedure: To the cell mass suspension of the strain MT-10905 obtained in Reference Example 2 was added a certain amount of methanol so as to attain any one of the methanol concentrations listed in Table 2, and then the suspension was kept at 30° C. for 1 hour. Cytidine deaminase will be expressed as cdd hereafter. The activity of cdd was analyzed after the cell mass suspension was added to 1.0 ml of the reaction solution consisting of 100 mM tris hydrochloride buffer (pH 8.0) and 20 mM cytidine, and then treated at 50° C. for 2 hours.
The cell mass suspension described above was kept at 30° C. for 1 hour without addition of methanol, and then the activity of cdd of the suspension was set at 100% of relative value.
as §1

Where [2] appears, read: MeOH 10%, 30° C. 1 hour, no methanol = 100%.
[3] abbreviates: MeOH 10%, cells heat treated 60° C. 20 hours = 100%.
Setting [4] is: MeOH 25%, 30° C. 1 hour, no methanol = 100%.
Where [5] appears, read: MeOH 25%, cells heat treated 60° C. 20 hours = 100%.
[6] abbreviates: MeOH 50%, 30° C. 1 hour, no methanol = 100%.
The mark [7] stands for this setting: MeOH 50%, cells heat treated 60° C. 20 hours = 100%.
[8] abbreviates: MeOH 70%, 30° C. 1 hour, no methanol = 100%.
Where [9] appears, read: MeOH 70%, cells heat treated 60° C. 20 hours = 100%.
Where [10] appears, read: MeOH 90%, 30° C. 1 hour, no methanol = 100%.
Where [11] appears, read: MeOH 90%, cells heat treated 60° C. 20 hours = 100%.

T2 sequence (P0ABF6 whole entry): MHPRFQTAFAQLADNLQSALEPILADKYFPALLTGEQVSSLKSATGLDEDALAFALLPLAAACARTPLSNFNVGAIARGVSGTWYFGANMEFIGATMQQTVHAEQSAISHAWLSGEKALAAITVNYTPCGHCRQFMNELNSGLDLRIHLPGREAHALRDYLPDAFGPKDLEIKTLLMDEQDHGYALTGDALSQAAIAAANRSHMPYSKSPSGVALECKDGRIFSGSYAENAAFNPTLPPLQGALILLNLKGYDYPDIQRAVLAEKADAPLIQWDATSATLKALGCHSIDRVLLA

With `CO` [MeOH, methanol], the “cod Residual Activity (%)” value is given as 90% in the experiment with cytosine deaminase (cod) (MeOH 10%); 80% in the experiment on cytosine deaminase (cod) (MeOH 25%); 50% in the experiment with cytosine deaminase (cod) (MeOH 50%); 30% with cytosine deaminase (cod) (MeOH 70%); 10% in the experiment with cytosine deaminase (cod) (MeOH 90%). Moreover, the “PNP Residual Activity (%)” value was 100% in experiment [1] (setting [2]); 100% in experiment [1] (setting [3]); 99% in experiment [1] (setting [4]); 98% in experiment [1] (setting [5]); 98% in experiment [1] (setting [6]); 96% in experiment [1] (setting [7]). Moreover, the “PNP Residual Activity (%)” value in experiment [1] (setting [8]) came to 97%; in experiment [1] (setting [9]), 96%; in experiment [1] (setting [10]), 97%; in experiment [1] (setting [11]), 96%. The “cdd Residual Activity (%)” value on cytidine deaminase (cdd) (setting [2]) was found to be 80%; on cytidine deaminase (cdd) (setting [3]), 80%; at cytidine deaminase (cdd) (setting [4]), 50%; on cytidine deaminase (cdd) (setting [5]), 50%; on cytidine deaminase (cdd) (setting [6]), 10%; at cytidine deaminase (cdd) (setting [7]) it was 10%. Moreover, the “cdd Residual Activity (%)” value stood at 0.5% at cytidine deaminase (cdd) (setting [8]), 0.5% at cytidine deaminase (cdd) (setting [9]), 0.1% at cytidine deaminase (cdd) (setting [10]) and 0.1% on cytidine deaminase (cdd) (setting [11]).
`C[S+](C)[O-]` [Dimethyl Sulfoxide]: the “PNP Activity” value in experiment [1] (30° C. 1 hour) is on record as 96%. Also, the “cdd Activity” value on cytidine deaminase (cdd) (30° C. 1 hour) worked out at 4%.
With `CN1CCN(C)C1=O` [N,N-Dimethylimidazolidinone], the “PNP Activity” value in experiment [1] (30° C. 1 hour) turned out to be 95%. Besides, on cytidine deaminase (cdd) (30° C. 1 hour), the “cdd Activity” value is 4%.
As for `CN(C)C=O` [N,N-Dimethylformamide], the “PNP Activity” value in experiment [1] (30° C. 1 hour) stood at 97%. The “cdd Activity” value on cytidine deaminase (cdd) (30° C. 1 hour) was 5%.
